The source of these data is patent publication US9920038B2, “Methyl oxazole orexin receptor antagonists” (MERCK SHARP & DOHME CORP., priority 2014, dated 2018).

Assay [1] concerns the target hOX1R (Homo sapiens, UniProt O43613). Briefly: hOX1R FLIPR Ca2+ flux assay. It is filed as cell-based. Particulars: CHO cells expressing orexin-1 receptor; agonist 70 pM Ala-6,12 orexin-A; read-out: hOX1R FLIPR IC50. (In general: A change in cytosolic calcium serves as a functional read-out for many receptors and channels.)
Assay [2] has as its target human orexin-2 receptor (Homo sapiens (Human), UniProt O43614). Briefly: hOX2R FLIPR Ca2+ flux assay. Conditions: CHO cells expressing human orexin-2 receptor; agonist 70 pM Ala-6,12 orexin-A. The format is cell-based. As for the experimental part: In a typical experiment the OX1 and OX2 receptor antagonistic activity of the compounds of the present invention was determined in accordance with the following experimental method. For intracellular calcium measurements, Chinese hamster ovary (CHO) cells expressing the rat orexin-1 receptor or the human orexin-2 receptor, are grown in Iscove's modified DMEM containing 2 mM L-glutamine, […], 1% hypoxanthine-thymidine supplement, 100 U/ml penicillin, 100 μg/ml streptomycin and 10% heat-inactivated fetal calf serum (FCS). The cells are seeded at 20,000 cells/well into Becton-Dickinson black 384-well clear bottom sterile plates coated with poly-D-lysine. All reagents were from GIBCO-Invitrogen Corp. The seeded plates are incubated overnight at 37° C. and 5% CO2. Ala-6,12 human orexin-A as the agonist is prepared as a 1 mM stock solution in 1% bovine serum albumin (BSA) and diluted in assay buffer (HBSS containing 20 mM HEPES, 0.1% BSA and 2.5 mM probenecid, pH7.4) for use in the assay at a final concentration of 70 pM. Test compounds are prepared as 10 mM stock solution in DMSO, then diluted in 384-well plates, first in DMSO, then assay buffer. On the day of the assay, cells are washed 3 times with 100 μl assay buffer and then incubated for 60 min (37° C., 5% CO2) in 60 μl assay buffer containing […] Fluo-4AM ester, 0.02% pluronic acid, and 1% BSA. The dye loading solution is then aspirated and cells are washed 3 times with 100 μl assay buffer. 30 μl of that same buffer is left in each well. Within the Fluorescent Imaging Plate Reader (FLIPR, Molecular Devices), test compounds are added to the plate in a volume of 25 μl, incubated for 5 min and finally 25 μl of agonist is added. Fluorescence is measured for each well at 1 second intervals for 5 minutes and the height of each fluorescence peak is compared to the height of the fluorescence peak induced by 70 pM Ala-6,12 orexin-A with buffer in place of antagonist. For each antagonist, IC50 value (the concentration of compound needed to inhibit 50% of the agonist response) is determined. Alternatively, compound potency can be assessed by a radioligand binding assay (described in Bergman et. al. Bioorg. Med. Chem. Lett. 2008, 18, 1425-1430) in which the inhibition constant (Ki) is determined in membranes prepared from CHO cells expressing either the OX1 or OX2 receptor. The intrinsic orexin receptor antagonist activity of a compound which may be used in the present invention may be determined by these assays.

Sequence of human orexin-2 receptor (O43614 whole entry): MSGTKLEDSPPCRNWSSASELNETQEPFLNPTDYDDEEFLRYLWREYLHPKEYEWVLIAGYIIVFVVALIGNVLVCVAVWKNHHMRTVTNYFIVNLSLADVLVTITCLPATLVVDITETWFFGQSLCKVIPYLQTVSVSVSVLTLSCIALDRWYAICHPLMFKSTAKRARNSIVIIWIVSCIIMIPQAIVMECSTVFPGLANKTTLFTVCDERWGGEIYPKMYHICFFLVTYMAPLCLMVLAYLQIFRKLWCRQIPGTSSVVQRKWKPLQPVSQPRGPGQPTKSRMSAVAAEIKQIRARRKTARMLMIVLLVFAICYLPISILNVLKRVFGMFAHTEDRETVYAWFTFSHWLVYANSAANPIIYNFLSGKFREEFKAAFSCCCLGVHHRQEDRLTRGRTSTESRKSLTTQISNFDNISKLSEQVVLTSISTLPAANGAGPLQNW

What is called IC50 is the concentration that gives 50% inhibition. As to `Cc1oc(C[C@H]2CCCCN2C(=O)c2ncccc2-c2ccccc2)nc1C(C)(C)O` [Example 25, (R)-(2-((4-(2-hydroxypropan-2-yl)-5-methyloxazol-2-yl)methyl)piperidin-1-yl)(3-phenylpyridin-2-yl)methanone], the IC50 in assay [1] is 0.24 µM; in assay [2] it was 0.127 µM.

Take `Cc1oc(C[C@H]2CCCCN2C(=O)c2nccnc2-n2cccn2)nc1C(C)(C)O` [Example 26, (R)-(3-(1H-pyrazol-1-yl)pyrazin-2-yl)(2-((4-(2-hydroxypropan-2-yl)-5-methyloxazol-2-yl)methyl)piperidin-1-yl)methanone]: the IC50 in assay [1] is 1.41 µM; in assay [2] it was 0.186 µM.

As for `Cc1oc(C[C@H]2CCCCN2C(=O)c2ccccc2C2CC2(F)F)nc1C(C)(C)O` (stereo partly drawn) [Example 27, (2-(2,2-difluorocyclopropyl)phenyl)((R)-2-((4-(2-hydroxypropan-2-yl)-5-methyloxazol-2-yl)methyl)piperidin-1-yl)methanone], the IC50 is 0.473 µM in assay [1] and 0.038 µM in assay [2].

For the compound `Cc1oc(C[C@H]2CCCCN2C(=O)c2ccccc2-n2ncnn2)nc1C(C)(C)O` [Example 28, (R)-(2-(2H-tetrazol-2-yl)phenyl)(2-((4-(2-hydroxypropan-2-yl)-5-methyloxazol-2-yl)methyl)piperidin-1-yl)methanone], the IC50 turned out to be 0.486 µM in assay [1] and 0.152 µM in assay [2].

Consider `CCCc1ccccc1C(=O)N1CCCC[C@@H]1Cc1nc(C(C)(C)O)c(C)o1` [Example 29, (R)-(2-((4-(2-hydroxypropan-2-yl)-5-methyloxazol-2-yl)methyl)piperidin-1-yl)(2-propylphenyl)methanone], for which the figures for the half-maximal inhibitory concentration (IC50) in assay [1] and in assay [2] were 0.794 µM and 0.106 µM, respectively.

On to `Cc1ccc(-n2nccn2)c(C(=O)N2CCCC[C@@H]2Cc2nc(C(C)(C)O)c(C)o2)c1` [Example 30, (R)-(2-((4-(2-hydroxypropan-2-yl)-5-methyloxazol-2-yl)methyl)piperidin-1-yl)(5-methyl-2-(2H-1,2,3-triazol-2-yl)phenyl)methanone], for which the half-maximal inhibitory concentration (IC50) is 0.05 µM in assay [1] and 0.046 µM in assay [2].

Regarding `Cc1oc(C[C@H]2CCCCN2C(=O)c2ccccc2-c2ncccn2)nc1C(C)(C)O` [Example 31, (R)-(2-((4-(2-hydroxypropan-2-yl)-5-methyloxazol-2-yl)methyl)piperidin-1-yl)(2-(pyrimidin-2-yl)phenyl)methanone], the figures for the IC50 in assay [1] and in assay [2] were 0.076 µM and 0.047 µM, respectively.
